From patent publication US20060004197A1, “Sulfonamide-based compounds as protein tyrosine kinase inhibitors” (priority 2004, published 2006)

Target: T1, Recombinant human Src (Homo sapiens, UniProt P12931)
T1 construct: made in house; host or cells: baculovirus-insect cell system
Assay: Src tyrosine kinase activity, poly E4Y / 32P-ATP phosphorylation assay
Assay type: biochemical
Details: Table 3, Formula II compounds; NI = no inhibition at 100 μg/mL
Experimental: Recombinant human Src was expressed using the baculovirus-insect cell system and purified as published (Budde et al., 1993 and 2000).
The tyrosine kinase activity of Src, Csk and FGFr was determined using poly E4Y and ^32P-ATP. Briefly, enzymes were assayed in a reaction mixture consisting of 0.15 M EPPS-NaOH (pH 8.0) with 6 mM MgCl2, 0.2 mM γ^32P-ATP (0.2-0.4 mCi/μmol), 10% glycerol, 0.1% Triton X-100, and poly E4Y. Poly E4Y is a synthetic peptide whose phosphorylation is measured in this assay by the addition of the radioactively labeled phosphate from the ATP (Budde et al., 1995). […] When ATP was varied (0, 50, 100 and 250 μM), poly E4Y was kept constant at 150 μg/ml.

T1 sequence (P12931 whole entry): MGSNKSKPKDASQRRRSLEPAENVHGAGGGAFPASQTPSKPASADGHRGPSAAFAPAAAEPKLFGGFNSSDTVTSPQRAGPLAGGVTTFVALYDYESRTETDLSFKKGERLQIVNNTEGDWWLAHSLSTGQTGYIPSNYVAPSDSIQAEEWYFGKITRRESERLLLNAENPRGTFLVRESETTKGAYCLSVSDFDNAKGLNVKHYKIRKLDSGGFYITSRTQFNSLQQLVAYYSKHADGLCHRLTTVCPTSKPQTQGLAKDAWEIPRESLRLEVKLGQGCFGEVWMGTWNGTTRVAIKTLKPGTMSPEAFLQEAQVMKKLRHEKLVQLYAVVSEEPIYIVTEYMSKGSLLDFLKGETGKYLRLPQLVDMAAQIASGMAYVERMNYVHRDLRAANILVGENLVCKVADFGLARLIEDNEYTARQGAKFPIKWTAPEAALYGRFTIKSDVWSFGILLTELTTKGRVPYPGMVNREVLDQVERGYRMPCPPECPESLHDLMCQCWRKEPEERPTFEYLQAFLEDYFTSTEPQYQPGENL

IC50 | SMILES
64 µM | Cc1ccc(S(=O)(=O)Nc2ccc(C(=NOCc3ccccc3)c3ccccc3)cc2NS(=O)(=O)c2ccc(C)cc2)cc1 [Compound 22ii, N-[4-(benzyloxyimino-phenyl-methyl)-2-(4-toluenesulfonylamino)-phenyl]-4-toluenesulfonamide]
25 µM | Cc1ccc(S(=O)(=O)Nc2ccc(NS(=O)(=O)c3c(C)noc3C)cc2NS(=O)(=O)c2ccc(C)cc2)cc1 [Compound 22j, 3,5-dimethyl-N-[3,4-bis-(4-toluenesulfonylamino)-phenyl]-isoxazole-4-sulfonamide]
154 µM | COc1ccc(Oc2ccc(NS(=O)(=O)c3sc(NC(C)=O)nc3C)c(NS(=O)(=O)c3ccc(C)cc3)c2)cc1 [Compound 22q, N-{5-[4-(4-methoxy-phenoxy)-2-(4-toluenesulfonylamino)-phenylsulfamoyl]-4-methyl-thiazol-2-yl}-acetamide]
335 µM | COc1ccc(Oc2ccc(NS(=O)(=O)c3c(C)noc3C)c(NS(=O)(=O)c3ccc(C)cc3)c2)cc1 [Compound 22r, 3,5-dimethyl-N-[4-(4-methoxy-phenoxy)-2-(4-toluenesulfonylamino)-phenyl]-isoxazole-4-sulfonamide]
44 µM | COc1ccc(Oc2ccc(NS(=O)(=O)c3cnc(Cl)c(Br)c3)c(NS(=O)(=O)c3ccc(C)cc3)c2)cc1 [Compound 22t, 5-bromo-6-chloro-N-[4-(4-methoxy-phenoxy)-2-(4-toluenesulfonylamino)-phenyl]-pyridine-3-sulfonamide]
20 µM | COc1ccc(Oc2ccc(NS(=O)(=O)c3ccc(Cl)c4nonc34)c(NS(=O)(=O)c3ccc(C)cc3)c2)cc1 [Compound 22u, 7-chloro-N-[4-(4-methoxy-phenoxy)-2-(4-toluenesulfonylamino)-phenyl]-benzo[1,2,5]oxadiazole-4-sulfonamide]
36 µM | CCCCc1ccc(S(=O)(=O)Nc2ccc(Oc3ccc(OC)cc3)cc2NS(=O)(=O)c2ccc(C)cc2)cc1 [Compound 22x, 4-butyl-N-[4-(4-methoxy-phenoxy)-2-(4-toluenesulfonylamino)-phenyl]-benzenesulfonamide]
20 µM | COc1ccc(Oc2ccc(NS(=O)(=O)CCc3cccc4ccccc34)c(NS(=O)(=O)c3ccc(C)cc3)c2)cc1 [Compound 22y, N-[5-(4-methoxy-phenoxy)-2-(2-naphthalen-1-yl-ethanesulfonylamino)-phenyl]-4-toluenesulfonamide]
174 µM | COc1ccc(Oc2ccc(NS(=O)(=O)c3ccc(S(C)(=O)=O)cc3)c(NS(=O)(=O)c3ccc(C)cc3)c2)cc1 [Compound 22z, 4-methanesulfonyl-N-[4-(4-methoxy-phenoxy)-2-(4-toluenesulfonylamino)-phenyl]-benzenesulfonamide]

Same assay, conditions: Table 3; compound at 15 μg/mL

% Inhibition at 15 μg/mL Src (%) | SMILES
5% | Cc1ccc(S(=O)(=O)Nc2ccc(CO)cc2NS(=O)(=O)c2ccc(C)cc2)cc1 [Compound 22l]

Same assay, conditions: Table 3; compound at 15 μg/mL; read-out: % Inhibition at 15 μg/mL Src (%)

inhibition at 15 µg/mL | SMILES
16% | Cc1ccc(S(=O)(=O)Nc2ccc(C(=NO)c3ccccc3)cc2NS(=O)(=O)c2ccc(C)cc2)cc1 [Compound 22jj, N-[4-(hydroxyimino-phenyl-methyl)-2-(4-toluenesulfonylamino)-phenyl]-4-toluenesulfonamide]
23% | CON=C(c1ccccc1)c1ccc(NS(=O)(=O)c2ccc(C)cc2)c(NS(=O)(=O)c2ccc(C)cc2)c1 [Compound 22kk, N-[4-(methoxyimino-phenyl-methyl)-2-(4-toluenesulfonylamino)-phenyl]-4-toluenesulfonamide]
17% | Cc1ccc(S(=O)(=O)Nc2cc(SCc3ccccc3Cl)ccc2NS(C)(=O)=O)cc1 [Compound 22ll, N-[5-(2-chloro-benzylsulfanyl)-2-methanesulfonylamino-phenyl]-4-toluenesulfonamide]
22% | COc1ccc(Oc2ccc(NS(=O)(=O)c3ccc(C)cc3)c(NS(C)(=O)=O)c2)cc1 [Compound 22m, N-[2-methanesulfonylamino-4-(4-methoxy-phenoxy)-phenyl]-4-toluenesulfonamide]
5% | COc1ccc(Oc2ccc(NS(=O)(=O)c3ccc(C)cc3)c(NS(=O)(=O)c3c(C)noc3C)c2)cc1 [Compound 22n, 3,5-dimethyl-N-[5-(4-methoxy-phenoxy)-2-(4-toluenesulfonylamino)-phenyl]-isoxazole-4-sulfonamide]
21% | Cc1ccc(S(=O)(=O)Nc2ccc(SCc3ccccc3Cl)cc2NS(C)(=O)=O)cc1 [Compound 22nn, N-[4-(2-chloro-benzylsulfanyl)-2-methanesulfonylamino-phenyl]-4-toluenesulfonamide]
0% | COc1ccc(Oc2ccc(NS(=O)(=O)c3ccc(C)cc3)c(NS(=O)(=O)c3cn(C)cn3)c2)cc1 [Compound 22o, N-[5-(4-methoxy-phenoxy)-2-(4-toluenesulfonylamino)-phenyl]-1-methyl-1H-imidazole-4-sulfonamide]
17% | COc1ccc(Oc2ccc(NS(C)(=O)=O)c(NS(=O)(=O)c3ccc(C)cc3)c2)cc1 [Compound 22p, N-[2-methanesulfonylamino-5-(4-methoxy-phenoxy)-phenyl]-4-toluenesulfonamide]
3% | COc1ccc(Oc2ccc(NS(=O)(=O)c3cn(C)cn3)c(NS(=O)(=O)c3ccc(C)cc3)c2)cc1 [Compound 22s, N-[4-(4-methoxy-phenoxy)-2-(4-toluenesulfonylamino)-phenyl]-1-methyl-1H-imidazole-4-sulfonamide]
22% | COc1ccc(Oc2ccc(NS(=O)(=O)c3ccc(-c4ccon4)s3)c(NS(=O)(=O)c3ccc(C)cc3)c2)cc1 [Compound 22v, 5-isoxazol-3-yl-N-[4-(4-methoxy-phenoxy)-2-(4-toluenesulfonylamino)-phenyl]-thiophene-2-sulfonamide]
6% | COC(=O)c1c(S(=O)(=O)Nc2ccc(Oc3ccc(OC)cc3)cc2NS(=O)(=O)c2ccc(C)cc2)c(C)n(C)c1C [Compound 22w, methyl 4-[4-(4-methoxy-phenoxy)-2-(4-toluenesulfonylamino)-phenylsulfamoyl]-1,2,5-trimethyl-1H-pyrrole-3-carboxylate]

Same assay, conditions: Table 4, Formula III compounds; NI = no inhibition at 100 μg/mL

SMILES | IC50
COc1ccc(Oc2cc(NS(=O)(=O)c3ccc(C)cc3)c(NS(=O)(=O)c3ccc(C)cc3)cc2C(=O)O)cc1 [Compound 34, 2-(4-methoxy-phenoxy)-4,5-bis-(4-toluenesulfonylamino)-benzoic acid] | 77 µM
COc1ccc(Oc2cc(NS(=O)(=O)c3ccc(C)cc3)c(NS(=O)(=O)c3ccc(C)cc3)cc2C)cc1 [Compound 37, N-[4-(4-methoxy-phenoxy)-5-methyl-2-(4-toluenesulfonylamino)-phenyl]-4-toluenesulfonamide] | 118 µM

Second part, the molecule after the results:

IC50 | SMILES
2.2 µM | Cc1ccc(S(=O)(=O)Nc2cc(F)c(SCc3ccccc3Cl)cc2NS(=O)(=O)c2ccc(C)cc2)cc1 [Compound 38c, N-[4-(2-chloro-benzylsulfanyl)-5-fluoro-2-(4-toluenesulfonylamino)-phenyl]-4-toluenesulfonamide]
13 µM | Cc1ccc(S(=O)(=O)Nc2cc(F)c(S(=O)(=O)Cc3ccccc3Cl)cc2NS(=O)(=O)c2ccc(C)cc2)cc1 [Compound 38d, N-[4-(2-chloro-phenylmethanesulfonyl)-5-fluoro-2-(4-toluenesulfonylamino)-phenyl]-4-toluenesulfonamide]

Same assay, conditions: Table 4; compound at 15 μg/mL; read-out: % Inhibition at 15 μg/mL Src (%)

inhibition at 15 µg/mL | SMILES
50% | COc1ccc(Oc2cc(NS(=O)(=O)c3ccc(C)cc3)c(NS(=O)(=O)c3ccc(C)cc3)cc2C(F)(F)F)cc1 [Compound 38b, N-[4-(4-methoxy-phenoxy)-2-(4-toluenesulfonylamino)-5-trifluoromethyl-phenyl]-4-toluenesulfonamide]

Same assay, conditions: compound at 15 μg/mL; read-out: % Inhibition at 15 μg/mL Src %

inhibition at 15 µg/mL | SMILES
13% | COc1ccc(Oc2ccc(N)c(NS(=O)(=O)c3ccc(C)cc3)c2)cc1 [Compound 71a, N-[2-amino-5-(4-methoxy-phenoxy)-phenyl]-4-toluenesulfonamide]
0% | Cc1ccc(C(=O)Nc2cc(NCC3CCCCC3)c([N+](=O)[O-])cc2NC(=O)c2ccc(C)cc2)cc1 [Compound 71aa, N-[4-(cyclohexylmethyl-amino)-5-nitro-2-(4-toluoylamino)-phenyl]-4-toluamide]
0% | COc1ccc(Oc2ccc(NC(=O)c3ccc(C#N)nc3)c(NS(=O)(=O)c3ccc(C)cc3)c2)cc1 [Compound 71b, 6-cyano-N-[4-(4-methoxy-phenoxy)-2-(4-toluenesulfonylamino)-phenyl]-nicotinamide]
22% | Cc1ccc(C(=O)Nc2cc(NCc3cccc4ccccc34)c([N+](=O)[O-])cc2NC(=O)c2ccc(C)cc2)cc1 [Compound 71bb, N-{4-[(naphthalen-1-ylmethyl)-amino]-5-nitro-2-(4-toluoylamino)-phenyl}-4-toluamide]
5% | COc1ccc(Oc2ccc(NC(=O)c3ccc(C(F)(F)F)nc3)c(NS(=O)(=O)c3ccc(C)cc3)c2)cc1 [Compound 71c, N-[4-(4-methoxy-phenoxy)-2-(4-toluenesulfonylamino)-phenyl]-6-trifluoromethyl-nicotinamide]
15% | COc1ccc(Oc2cc(N)c(NS(=O)(=O)c3ccc(C)cc3)cc2[N+](=O)[O-])cc1 [Compound 71cc, N-[2-amino-4-(4-methoxy-phenoxy)-5-nitro-phenyl]-4-toluenesulfonamide]
